For one data set, the target named is T1, papain (Carica papaya, UniProt P00784).
T1 sequence (P00784 134-345): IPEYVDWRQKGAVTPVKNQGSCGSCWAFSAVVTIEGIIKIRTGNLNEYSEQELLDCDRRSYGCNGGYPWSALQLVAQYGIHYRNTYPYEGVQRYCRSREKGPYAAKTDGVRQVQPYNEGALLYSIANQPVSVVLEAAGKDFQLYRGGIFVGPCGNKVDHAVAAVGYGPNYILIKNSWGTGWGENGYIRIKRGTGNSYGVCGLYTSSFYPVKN
The note with it: literature (Kawamura et al.; Umezawa); cited from earlier work.

The test system of another data set is trypsin. The note with it: literature (Kawamura et al.; Umezawa); cited from earlier work.
The next data set addresses plasmin (Homo sapiens, UniProt P00747). To be noted: literature (Kawamura et al.; Umezawa); cited from earlier work.
The target of data set [1] is thrombin (Homo sapiens, UniProt P00734). The note with it: Hungarian Patent No. 169,870; cited from earlier work.
In data set [2] the target is T2, US Standard Human Thrombin (Homo sapiens, UniProt P00734).
T2 construct: US Standard Human Thrombin; purchased NIH, Bethesda, Maryland, USA
The data set is described as follows: Antithrombin activity: amount of drug for tenfold increase of the thrombin-time of fibrinogen. Type of data set: biochemical. To be noted: for Amount of drug required for tenfold increase of thrombin-time following dissolution of peptide, 0 hour: 0 hour after dissolution in TRIS/HCl buffer pH=7.4, bovine fibrinogen, thrombin 5 U/ml; for relative activity (ra), 20 hours: 20 hours in TRIS/HCl buffer, relative to H-D-Phe-Pro-Arg(COOH)-H at 0 hour = 100; for Amount of drug required for tenfold increase of thrombin-time following dissolution of peptide, 20 hours: 20 hours standing in TRIS/HCl buffer pH=7.4; for change of antithrombin potency upon standing in solution: TRIS/HCl buffer, pH=7.4. The procedure:
Antithrombin activity is defined by the amount of drug required for a tenfold increase of the thrombin-time of fibrinogen (thrombintime: time of clotting induced by thrombin).
Antithrombin activities were assayed in the following system:
0.5 percent bovine fibrinogen (0.2 ml). in 0.9 percent sodium chloride solution, peptide in TRIS/HCl buffer (0.1 ml., pH=7.4), and US Standard Human Thrombin (0.1 ml.) (NIH, Bethesda, Maryland, USA; 5 U/ml.). The clotting time of the system devoid of peptide is 15 seconds.

A further data set concerns thrombin-time. The experiment in a line: In vivo antithrombin activity after oral administration to dogs, measured in a Thromboelastograph. On the set-up: species or system dog. The note with it: 50 mg./kg., for a period of two hours. An excerpt:
(§1) This effect is substantial not only at intravenous, intramuscular and subcutaneous but also at oral administration.

The subject of data set [3] is thrombin. The experiment in a line: In vivo trials of antithrombin activity on five species. To be noted: mouse, rat, rabbit, dog, monkey; intravenous, intramuscular, subcutaneous and oral administration.
Source text: as §1

Square brackets hold non-standard residues; d marks the D form. Peptide text beside a SMILES is read from it. * marks the point of attachment. d(aIle) = CC[C@H](C)[C@@H](N)C(=O)O; Bz = O=C(c1ccccc1)*

Sequence of plasmin (P00747 581-810 limits assumed, species assumed): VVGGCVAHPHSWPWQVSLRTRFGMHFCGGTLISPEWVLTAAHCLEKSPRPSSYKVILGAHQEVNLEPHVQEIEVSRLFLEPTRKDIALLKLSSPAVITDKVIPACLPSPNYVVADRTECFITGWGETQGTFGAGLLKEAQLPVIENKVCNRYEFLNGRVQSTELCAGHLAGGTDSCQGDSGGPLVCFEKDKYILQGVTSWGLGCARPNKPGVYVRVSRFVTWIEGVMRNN
Sequence of plasmin (P00747 97-580 partner limits assumed, species assumed): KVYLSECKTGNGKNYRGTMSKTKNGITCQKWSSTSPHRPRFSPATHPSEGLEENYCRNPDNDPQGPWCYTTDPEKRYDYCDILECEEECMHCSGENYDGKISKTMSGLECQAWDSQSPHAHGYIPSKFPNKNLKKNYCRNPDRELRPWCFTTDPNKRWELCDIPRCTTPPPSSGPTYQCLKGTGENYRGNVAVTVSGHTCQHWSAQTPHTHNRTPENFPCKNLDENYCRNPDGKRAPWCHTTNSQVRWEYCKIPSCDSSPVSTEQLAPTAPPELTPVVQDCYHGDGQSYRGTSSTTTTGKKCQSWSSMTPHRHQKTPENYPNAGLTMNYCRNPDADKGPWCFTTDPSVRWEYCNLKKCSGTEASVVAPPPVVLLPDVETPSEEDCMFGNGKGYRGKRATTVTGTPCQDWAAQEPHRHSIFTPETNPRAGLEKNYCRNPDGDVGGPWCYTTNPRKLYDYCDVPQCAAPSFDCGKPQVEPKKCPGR

For `CCC(=O)N[C@@H](CC(C)C)C(=O)N[C@@H](CC(C)C)C(=O)N[C@H](C=O)CCCNC(=N)N.Cl` [propionyl-L-leucyl-L-leucyl-arginine aldehyde hydrochloride], the inhibition of papain result at papain was “capable to inhibit”. For the same compound, the inhibition of trypsin result in the data set with trypsin was “capable to inhibit”. The inhibition of plasmin entry at plasmin was “capable to inhibit”.

Consider `CC(=O)N[C@@H](CC(C)C)C(=O)N[C@@H](CC(C)C)C(=O)N[C@H](C=O)CCCNC(=N)N.Cl` [acetyl-L-leucyl-L-leucyl-arginine aldehyde hydrochloride], for which the inhibition of papain result on papain was “capable to inhibit”. Besides, the inhibition of trypsin result in the data set on trypsin is “capable to inhibit”. Besides, the inhibition of plasmin result on plasmin is on record as “capable to inhibit”.

Turning to `CC[C@H](C)[C@@H](NC(=O)c1ccccc1)C(=O)N1CCC[C@H]1C(=O)N[C@H](C=O)CCCNC(=N)N.Cc1ccc(S(=O)(=O)O)cc1` [benzoyl-D-allo-isoleucyl-L-prolyl-L-arginine aldehyde p-toluenesulfonate] (Bz-[d(aIle)]-Pro-Arg-aldehyde), the “antithrombin activity (literature)” value on thrombin [1] is “marked antithrombin activity”.

`CC(=O)O.N=C(N)NCCC[C@@H](C=O)NC(=O)[C@@H]1CCCN1C(=O)[C@H](N)Cc1ccccc1` [H--D-Phe-- Pro--Arg--H . 2 CH3 COOH, D-phenylalanyl-L-prolyl-L-arginine aldehyde acetate]: in data set [2], the “Amount of drug required for tenfold increase of thrombin-time following dissolution of peptide, 0 hour” value was 0.37 to 1.25 µg/mL; the “relative activity (ra), 20 hours” value is listed as 4; the “Amount of drug required for tenfold increase of thrombin-time following dissolution of peptide, 20 hours” value was 6.2 µg/mL; the “change of antithrombin potency upon standing in solution” value is “reduced”. In addition, on thrombin [1], the “antithrombin activity (literature)” value is on record as “marked antithrombin activity”. The “increase of thrombin-time in vivo” value with thrombin-time is on record as “practically no influence”.

With `Cl.N=C(N)NCCC[C@@H](C=O)NC(=O)[C@@H]1CCCN1C(=O)[C@H](N)Cc1ccccc1` [H--D-Phe-- Pro--Arg--H . 2HCl, D-phenylalanyl-L-prolyl-L-arginine aldehyde hydrochloride], in data set [2], the “Amount of drug required for tenfold increase of thrombin-time following dissolution of peptide, 0 hour” value was 0.35 to 0.95 µg/mL; the “relative activity (ra), 20 hours” value is recorded as 5; the “Amount of drug required for tenfold increase of thrombin-time following dissolution of peptide, 20 hours” value worked out at 6.0 µg/mL; the “change of antithrombin potency upon standing in solution” value is “reduced”. In addition, the “increase of thrombin-time in vivo” value with thrombin-time is “practically no influence”.

Consider “D-Phenylalanyl-L-prolyl-N^G -carboxyl-L-arginine aldehyde [H--D-Phe-- Pro--Arg(COOH)--H]”, for which, in data set [2], the “Amount of drug required for tenfold increase of thrombin-time following dissolution of peptide, 0 hour” value turned out to be 0.275 µg/mL; the “relative activity (ra), 20 hours” value is given as 92; the “Amount of drug required for tenfold increase of thrombin-time following dissolution of peptide, 20 hours” value turned out to be 0.300 µg/mL. The “relative activity (ra), 0 hour” value in data set [2] (0 hour, activity of H-D-Phe-Pro-Arg(COOH)-H arbitrarily taken as 100) is reported as 100. The “antithrombin (enzyme inhibitory) activity compared with the free tripeptide aldehyde salt of corresponding sequence” value in data set [2] (thrombin-fibrinogen reaction, versus H-D-Phe-Pro-Arg-H hydrochloride or acetate) is recorded as “higher”. The “increase of thrombin-time in vivo” value with thrombin-time is given as “four to sixfold”. In addition, in the data set with thrombin [3], the “in vivo antithrombin effect” value is “substantial”.

(Values after patent US4316889A, “Novel peptidyl-arginine aldehyde derivatives and process for the preparation thereof” (Richter Gedeon Vegyeszeti Gyar Rt., priority 1979, dated 1982).)
